“And” between values parts separate entries of the source, which are not always exact repeats. Equal values may be shown once. “Also recorded” adds a separate entry of the source. Read-outs that look alike come from different tables or passages of the source. Marks after values point to notes of the source that are not given here.
Assays:
[1] = INFOGEST static in vitro gastrointestinal digestion, bioaccessibility from T. ferdinandiana freeze-dried powder; format: in vitro ADME
Protocol: Freeze-dried T. ferdinandiana powder (0.5 g) was mixed with 20 mL milli-Q water, vortexed, and used as the initial starting material for in vitro gastrointestinal digestion based on the INFOGEST model detailed in Section INFOGEST Gastrointestinal in vitro Digestion ([14]). Digestions were performed in duplicate with samples collected at various time points throughout the digestion process. Gastric digesta samples were collected at t = 0 (G0) and t = 60 (G60) min into the gastric phase, and intestinal digesta were collected at t = 30 (I30), t = 60 (I60), and t = 120 (I120) min into the intestinal digestion phase.
A harmonized in vitro gastrointestinal digestion method developed in the COST action INFOGEST network was applied ([14]). Oral phase was not included in this experiment as T. ferdinandiana fruit is currently marketed as freeze-dried powder that would not undergo a substantial oral phase or may be incorporated into a nutraceutical product in pill, capsule, or beverage form. The digestive fluids (simulated salivary fluid (SSF), simulated gastric fluid (SGF), and simulated intestinal fluid (SIF)) were prepared according to the INFOGEST method ([14]). The activity of all enzymes was also measured according to the protocols described in the INFOGEST method ([14]) to ensure standardized application. […] Porcine pancreatin was used at 16 units/mL trypsin activity. […] Figure 1 provides an overview of the digestion protocols and conditions employed in the study. At the end of each digestion steps, samples were collected and snap-frozen (−80°C) to stop the digestion. Pefabloc at a concentration of 0.1 M was recommended to stop intestinal digestion; however, considering the cytotoxic nature of Pefabloc at a concentration ≥ 0.25 mM, Pefabloc was not applied to avoid future cell toxicity.
The samples were centrifuged and filtered through 0.22 μm syringe filters prior to analysis. An Acquity UHPLC system (Waters Corp., Milford, MA, USA), equipped with a Waters Acquity UHPLC photodiode array (PDA) detection system, was used to carry out the analysis. Empower™ software (Waters Corp., USA) was used to process and quantify peaks after recording the signals. A Waters Acquity HSS T3 analytical column (100 mm × 2.1 mm, 1.8 μm particle size) (Waters Corp., USA), with an isocratic mobile phase of 0.1% aqueous (v/v) formic acid at a flow rate of 250 μL/min, was used with an injection volume of 2 μL. The absorbance was measured at room temperature at 245 nm.
T. ferdinandiana digesta and intestinal absorption samples were analyzed for EA. All samples were centrifuged and filtered through 0.22 μm PTFE membrane filters (Millipore, CA, USA) before injection into the chromatographic system. Samples were analyzed on a Waters Acquity UHPLC system (Waters Corp., Milford, MA, USA) equipped with PDA detector. A Waters BEH Shield RP18 Column 130 °A, 1.7 μm (100 mm X 2.1 mm) from Waters Corporation (Milford, Massachusetts, USA) was used. Column temperature was maintained at 40°C, the injection volume was 2 μL, PDA spectrum was scanned from 200 to 400 nm with a rate of 2.5 Hz, and detection was carried out at 254 nm. […] Formic acid 0.1% was used for mobile phase A (Milli-Q water) and phase B (acetonitrile) at a flow rate of 0.4 mL/min.
T. ferdinandiana digesta and intestinal absorption samples were cleaned up with a SPE step ([20]) for OA analysis. Mixed reversed phase-[…] anion exchange sorbent Strata® SAX (55 μm, 70 Å, 500 mg/3 mL) was purchased from Phenomenex (Torrance, CA, USA) and used in this study. The SPE process was maintained through an Analytichem VAC ELUT SPS 24 Port Vacuum Manifold from Agilent Varian (Santa Clara, CA, USA). The SPE columns were sequentially conditioned with 3 mL of methanol and 3 mL of milli-Q water. Digesta and intestinal absorption samples at a volume of 1 mL dripped through the cartridges by gravity (with a flow rate of about 1 mL/min). The cartridges were washed with 3 mL of water and 3 mL of methanol.

[2] = design: method as in PMID 23374081; conditions: blended fruit juice containing orange, pineapple, and kiwi; cited from earlier work
[3] = Intestinal absorption assay (Papp, apical to basolateral) across Caco-2-HT29-MTX-E12 coculture on Transwell; format: in vitro ADME, human; conditions: human, 10:1 dilution, applied 2 h, read-out: Apparent permeability (Papp)
Protocol: (§1) Caco-2 and HT-29-MTX-E12 cells were seeded on Costar Transwell® plate inserts in a ratio of 9:1 and at a density of 1,09,000 cells/cm^2 and 12,120 cells/cm^2, respectively. Cells were cultured in growth media at 37°C and 5% CO2 for 21 days to facilitate cell differentiation and formation of an intact monolayer. During the 21-day differentiation period, growth media was removed and replaced with fresh media every 2–3 days. Cell differentiation of an intact monolayer was monitored by measuring the transepithelial electrical resistance (TEER) of the cell monolayer in an apical–basolateral direction. TEER was measured using the Millicell-ERS Voltohmmeter from Millipore (Burlington, MA, USA). TEER is a measurement of resistance and is a sensitive and convenient method to assess and the integrity of the cell monolayer. The values obtained are determined by cellular resistance (between apical and basolateral membrane) and the paracellular resistance (tight junctions). TEER values above 300 Ω.cm^2 are indicative of differentiated Caco-2-HT29-MTX-E12 cells and an intact monolayer ([17]).
(§2) In vitro absorption was performed by following the procedure described by Osborne and colleagues ([18]). On the day of the intestinal absorption assay, TEER was measured and growth media was replaced with HBSS in the apical and basolateral chambers for 2 h to enhance uptake of the applied digesta. For the absorption study, intestinal digesta samples (I30, I60, and I120) were diluted 10:1 with HBSS. […] In the apical chamber, 200 μL diluted intestinal digesta (I30, I60, and I120) were applied for 120 min. HBSS (600 μL) was added in the basolateral chamber. After 2 h, all apical and basolateral samples were collected and stored at−80°C. HBSS was replaced with growth media in all chambers with TEER values measured again immediately after the assay. TEER was also recorded 24 and 48 h after the assay. Intestinal absorption studies were performed in duplicate. The rate of EA, AA, OA, and Ca^2+ movement across the transwell® membrane was determined by calculating the apparent permeability coefficient (Papp) in cm/s as follows ([19]):
(§3) ΔQ/Δt is steady-state appearance rate of compound in receiver (basolateral) compartment (μmol/s).
(§4) A is the surface area of the filter (i.e., 0.33 cm^2).
(§5) C0 is the initial concentration in the donor (apical) compartment (μM).
(§6) Intestinal absorption of AA, EA, OA, and Ca^2+ from digested T. ferdinandiana powder was measured using Caco-2-HT29-MTX-E12 coculture cell monolayers. Intestinal digesta samples that were collected at different time points (I30, I60, and I120) throughout the in vitro digestion were applied to the coculture transwell model for 120 min before apical and basolateral samples were collected. The amount of AA, EA, OA, and Ca^2+ was measured in the digesta initially applied to the apical chamber of the transwell model, and in samples collected from the basolateral chamber. Apparent permeability (Papp) was calculated with statistical significance observed (p ≤ 0.05) in Papp values obtained from the applied I30, I60, and I120 digesta samples (Figure 4 and Table 2).

[4] = tested on: Caco-2-HT29-MTX-E12 coculture cell monolayers; experiment: as above; format: in vitro ADME, human; conditions: for In vitro permeability (in words): comparison among AA, EA, OA, Ca^2+; for Apparent permeability (Papp): 10:1 dilution, applied 2 h
Protocol: as §1, §2, §3, §4, §5, §6

[5] = tested on: Caco-2 cell barrier; design: method as in PMID 27738446; conditions: reported previously; cited from earlier work
[6] = tested on: HepG2 cells; design: method as in PMID 19101929; conditions: cited from earlier work
[7] = Gastric t = 0 (G0), released from T. ferdinandiana fruit matrix
[8] = Intestinal t = 30 min (I30), pancreatin and bile
[9] = Gastric t = 60 min (G60), pepsin
[10] = intestinal phase, time point not stated

Structure (SMILES) | Bioaccessibility [1, 7] | Bioaccessibility [1, 8] | Bioaccessibility ([1]; Intestinal t = 60 min (I60)) | Bioaccessibility ([1]; Intestinal t = 120 min (I120)) | Recovery after gastric digestion [2] | Papp at 120 min ([3]; I30 digesta) | Papp at 120 min ([3]; I60 digesta) | Papp at 120 min ([3]; I120 digesta) | In vitro permeability (in words) [4] | Bioaccessibility ([1]; Gastric t = 0 (G0), released from T. ferdinandiana fruit matrix, listed as calcium) | Bioaccessibility [1, 9] | Bioaccessibility [1, 10] | Apparent permeability (Papp) ([4]; I30 digesta) | Apparent permeability (Papp) ([4]; I60 digesta) | Apparent permeability (Papp) ([4]; I120 digesta) | Papp [5] | Time at which absorption was detected after application [6] | Time of peak absorption [6]
O=C1O[C@H]([C@@H](O)CO)C(O)=C1O [AA, ascorbic acid] | 93% and 93 ± 2^a % | 93% and 93 ± 7^a % | 100% and 100 ± 1^a % | 79% and 79 ± 5^a % | 83% | 41 ± 5 ×10⁻⁶ cm/s | 19 ± 0.4 ×10⁻⁶ cm/s | 10 ± 0.1 ×10⁻⁶ cm/s | low apparent permeability; also recorded: in vitro permeability was low | – | – | – | – | – | – | – | – | –
[Ca+2] [Ca^2+, calcium] | 67 ± 4^c % | 90% and 90^a ± 0.0% | 90% and 90 ± 1^c % | 79% and 79 ± 2^a % | – | – | – | – | – | 67% | 69 ± 1^a % | 90% | 60 ± 6^a x 10^−6 cm/s | 56 ± 7^a x 10^−6 cm/s | 50 ± 9^a x 10^−6 cm/s | – | – | –
O=c1oc2c(O)c(O)cc3c(=O)oc4c(O)c(O)cc1c4c23 [EA, ellagic acid] | 33% and 33 ± 1^b % | 49% and 49 ± 3^b % | 49% and 49 ± 1^b % | 48% and 48 ± 1^b % | – | 796 ± 7 ×10⁻⁶ cm/s | 394 ± 4 ×10⁻⁶ cm/s | 201 ± 2 ×10⁻⁶ cm/s | highest permeability | – | 42 ± 1^b % | 48% | – | – | – | 0.347 ± 0.018 /10^−6 cm/s | 15 min | 4 h
O=C(O)C(=O)O [OA, oxalic acid] | 72% and 72 ± 7^c % | 98% and 99^a ± 0.0% | 98 ± 3^a % | 89% and 89 ± 1^a % | – | 258 ± 5 ×10⁻⁶ cm/s | 231 ± 1 ×10⁻⁶ cm/s | 150 ± 7 ×10⁻⁶ cm/s | – | – | 85 ± 2^a % | 98% | – | – | – | – | – | –

Source: article PMC8828953, “In vitro Bioaccessibility and Intestinal Absorption of Selected Bioactive Compounds in Terminalia ferdinandiana” (Frontiers in Nutrition, 2022)
